Results on 1 substance are retold here after patent US8119589B2, “Modulation of CD4+ T cell responses by a tick saliva protein, Salp15 and polypeptides derived therefrom” (University of North Carolina at Charlotte, priority 2004, dated 2012).

The target of one assay is T1, sCD4 (Homo sapiens, UniProt P01730).
T1 construct: the extracellular four domains of CD4 (sCD4); purchased Research Diagnostics Inc., Flanders, N.J., U.S.A
The experiment in a line: Competition for sCD4-HRP binding to plate-bound P11. The procedure: (§1) Purified sCD4 was coated overnight at 4° C. at the indicated concentrations in 0.1M sodium carbonate buffer (pH 9.5) in 96 well plates. Equimolar amounts of lysozyme were used as a non-specific control. The wells were washed, blocked with 10% FCS/PBS for 1 hr at R.T., and incubated with Salp15 (0.4 μM) for 2 hr at 37° C. Salp15 binding was detected by incubation with horseradish peroxidase (HRP)-conjugated anti-His antibody for 1 hr followed by microwell peroxidase substrate (KPL). The reaction was stopped by adding TMB stop solution (KPL). Chemically synthesized overlapping peptides of Salp15 were purchased from GenScript Corporation (Piscataway, N.J., U.S.A). To study the binding of Salp15 and peptides to sCD4, Salp15 (5 μg) and different peptides (0.5 μg) were coated. The wells were washed and blocked prior to incubation with sCD4-HRP (Research Diagnostics Inc., Flanders, N.J., U.S.A.). For competition assays, indicated concentrations of Salp15 or P11 were added to sCD4-HRP and incubated with plate bound P11 (0.1 μg). To estimate the effect of dithiothreitol (DTT) treatment of Salp15 on binding to sCD4, 0.5 μM Salp15 was treated with 10 mM DTT overnight and immobilized onto microtiter plate followed by blocking and incubation with sCD4-HRP.

A further assay addresses T2, sCD4 D1-D4 (Homo sapiens, UniProt P01730).
T2 construct: a sCD4 preparation that contains all four extracellular domains (D1-D4)
The experiment in a line: Microtiter binding assay with immobilized sCD4 D1-D4. Conditions: Salp15 0.4 μM; similar kinetics to D1-D2. The procedure: as §1

The next assay has as its system CD8+ cells. The experiment in a line: Salp15488 binding on cell surface by confocal microscopy. More on the design: species or system mouse.
Assay [1] deals with CD4+ T cells from DO11.10 transgenic mice. The experiment in a line: IL-2 production by DO11.10 transgenic CD4+ T cells activated with ovalbumin and APCs. Format: cell-based, mouse. Conditions: 0.5, 5.0 and 50 μg/mL Salp15; ovalbumin; 72 hrs. The procedure:
T-cells from CD4-deficient and B6 mice (The Jackson Laboratory, Bar Harbor, Me., U.S.A.) were purified by negative selection and activated for 72 hrs using 5 μg/ml of plate bound anti-CD3 and 1 μg/ml of anti-CD28 in the presence or absence of 50 μg/mL of Salp15. DO11.10 transgenic mouse (The Jackson Laboratory) CD4^+ T cells were purified by negative selection as before and incubated in the presence of 106/mL of syngeneic mitomycin C-treated (50 μg/ml for 40 min at 37° C.) antigen presenting cells (APCs) with 10 μg/mL of ovalbumin in the presence of 0.5, 5.0 and 50 μg/mL of Salp15 for 72 hrs. The supernatants were then collected and IL-2 measured by capture ELISA following the manufacturer's instruction (BD Biosciences Pharmingen).

The subject of the next assay is mouse CD4+ T lymphocytes. As to the kind of experiment: TCR ligation-induced protein tyrosine phosphorylation in anti-CD3/CD28 stimulated CD4+ T cells (immunoblotting, confocal microscopy). It is filed as cell-based. On the procedure: Naïve CD4+ T cells from C3H/HeN, Balb/c, and B10.BR mice were purified as previously described (Anguita et al., 2002). CD4+ T cells were preincubated in Click's modified Bruff's Medium (Sigma Chemical Co., St. Louis, Mo., U.S.A.) for 10 minutes at 37° C. with and without Salp15 (50 μg/mL) and stimulated for 20 min or the indicated times at 37° C. with 10 μg/mL of anti-CD3ε, 1 μg/mL of anti-CD28, and 10 μg/mL of anti-armenian and syrian hamster IgG (BD Biosciences Pharmingen, San Jose, Calif., U.S.A.). Jurkat (E6-1) cells were stimulated using 5 μg/mL of OKT3 mAb (eBioscience, San Diego, Calif., U.S.A.) and 1 μg/mL of anti-human CD28 cross linked with 5 μg/mL anti-mouse IgG for the indicated times.
For the visualization of lipid rafts, phospho-tyrosine, and cytoskeleton reorganization, CD4^+, CD8^+ or Jurkat cells were cytospun for 10 minutes at 1000 RPM onto positively charged microslides (Fisher Scientific, Hampton, N.H., U.S.A.). The cells were fixed with 3.7% paraformaldehyde (Sigma Chemical Co.) for 15 minutes and stained with CTB594 (Molecular Probes, Eugene, Oreg., U.S.A.), AlexaFluor488 labeled phalloidin (Molecular Probes) or (1:50) biotin-conjugated anti-p-Tyr (PY99) followed by Streptavidin-AlexaFluor594 (1:100, Molecular Probes). For p-LAT and p-PLCγ1 staining, fixed cells were treated with PBS containing 0.1% Triton-X 100 and 100 mM glycine for 15 min at room temperature and stained using rabbit p-LAT (Tyr^191) or rabbit anti-p-PLCγ1 (Tyr^783) probed with anti-rabbit IgG488 (Molecular Probes).
For tyrosine phosphorylation western analysis, cells were lysed in 60 mM Tris (pH 7.4) containing 150 mM NaCl, 5 mM EDTA, 1 mM EGTA, 1 mM β-glycerol phosphate, 2.5 mM sodium pyrophosphate, 25 mM NaF, 2 mM sodium orthovanadate, 1% Triton-X 100, 0.25% sodium deoxycholate, 1 mM PMSF and protease inhibitors for 15 min on ice, sonicated 4×5 sec and incubated at 37° C. for 10 min. The lysate was cleared by centrifugation and boiled in SDS-sample buffer. The samples were subjected to SDS-PAGE, transferred to a nitrocellulose membrane and immunoblotted with anti-pTyr, anti-pPLCγ1 and anti-Vav1, anti-pSrc family (Tyr^416) to measure p-Lck^394 (Alonso et al., 2004), anti-Lck, anti-pZap70 (Tyr^319), anti-Zap70, p44/42 and p44/42 (phopho-Tyr^204/Thr^202). Vav1 was immunoprecipitated using anti-Vav1 and protein A-agarose beads overnight, subjected to SDS-PAGE followed by immunoblotting with anti-pTyr or anti-Vav1. To examine the effect of Salp15 on T cell stimulation with INFγ, CD4^+ T cells were preincubated with Salp15 at 50 μg/mL followed by activation with 20 ng/mL of mouse recombinant INFγ (R & D Systems, Minneapolis, Minn., U.S.A.) for 30 min at 37° C. The cells were lysed as above and subjected to SDS-PAGE and immunoblotting with anti-pSTAT1 and anti-STAT1.
Quantification of immunoblots was performed using the SCION IMAGE™ software package, Scion Corporation (Frederick, Md., U.S.A.).
(In general: A western blot detects proteins with antibodies after separation by electrophoresis.)

The mark [2] stands for this setting: Salp15 pretreatment, quantification of the specific bands.

In the case of “Salp15: secreted salivary protein from Ixodes scapularis, SEQ ID NO: 2; recombinant His-tagged, produced in Drosophila S2 cells”, in the assay with sCD4, the “Competition of P11 binding to sCD4 by increasing concentrations of Salp15” value was “could also be competed”. The “Binding to sCD4 D1-D4” value with sCD4 D1-D4 is listed as “saturable binding”. For the same substance, in the assay on CD8+ cells, the “Staining of CD8+ cells” value is recorded as “no staining”. In assay [1], the “Inhibition of IL-2 production” value was “dose dependent manner”. In the assay on mouse CD4+ T lymphocytes (Salp15 pretreatment (50 μg/mL), anti-CD3/CD28 stimulated, compared to control treated cells), the “Reduction of PLCγ1 phosphorylation (Tyr783)” value stood at 46%. For the same substance, in the assay with mouse CD4+ T lymphocytes (Salp15 pretreatment, Vav1 immunoprecipitation, anti-pTyr immunoblot), the “Reduction in tyrosine phosphorylation of Vav1” value is about 58%. In the assay on mouse CD4+ T lymphocytes (Salp15 pretreatment, immunofluorescence), the “Phosphorylation level of Lat at Tyr191” value is reported as “reduced”. For the same substance, in the assay with mouse CD4+ T lymphocytes (setting [2]), the “Reduction in tyrosine phosphorylation of Lck (Tyr394)” value is “about 56%” and the “Reduction in tyrosine phosphorylation of Zap70 (Tyr319)” value is reported as about 67%. Moreover, in the assay with mouse CD4+ T lymphocytes (anti-CD3/CD28 stimulation), the “ERK activation (ERK1/2 phosphorylation)” value is “does not impair”. Besides, the “Lck phosphorylation in the absence of T cell stimulation” value in the assay with mouse CD4+ T lymphocytes (no stimulation) is “did not induce”.
